Assays:
C-ACE = biological target: T1, C-ACE (Homo sapiens, UniProt P12821); assay: X-ray crystal structure, […] Å; type: binding; settings: co-crystal, pH 4.0 reservoir; active site, zinc coordination
T1 construct: tACEΔ36-g13, truncated underglycosylated variant of testis ACE (C-domain), CHO cells, purified

AnCE [1] = biological target: T2, AnCE (Drosophila melanogaster, UniProt Q10714); assay: inhibition of hippuryl-histidyl-leucine hydrolysis; type: biochemical
T2 construct: recombinant single-domain enzyme, secreted from Pichia pastoris, purified
T2 sequence (Q10714 18-615): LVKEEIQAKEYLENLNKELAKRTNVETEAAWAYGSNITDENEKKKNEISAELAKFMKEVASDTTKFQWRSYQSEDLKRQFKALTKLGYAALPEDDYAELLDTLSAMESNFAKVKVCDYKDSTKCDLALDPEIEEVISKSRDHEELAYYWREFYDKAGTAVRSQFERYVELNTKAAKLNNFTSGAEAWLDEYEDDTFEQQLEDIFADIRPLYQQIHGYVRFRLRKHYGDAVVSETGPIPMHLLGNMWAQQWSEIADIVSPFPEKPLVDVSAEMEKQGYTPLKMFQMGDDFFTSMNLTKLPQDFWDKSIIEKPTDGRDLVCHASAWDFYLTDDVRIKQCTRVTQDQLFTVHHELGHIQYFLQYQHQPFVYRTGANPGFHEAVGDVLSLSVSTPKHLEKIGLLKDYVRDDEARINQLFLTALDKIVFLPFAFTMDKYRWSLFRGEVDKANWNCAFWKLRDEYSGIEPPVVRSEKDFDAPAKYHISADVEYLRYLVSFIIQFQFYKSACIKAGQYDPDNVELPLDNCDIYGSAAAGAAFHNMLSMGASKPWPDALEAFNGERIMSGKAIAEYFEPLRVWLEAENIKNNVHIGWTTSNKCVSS

AnCE [2] = biological target: T2, AnCE; assay: inhibition of hippuryl-histidyl-leucine hydrolysis, Ki from IC50 (Cheng-Prusoff); type: biochemical; settings: read-out: apparent Ki

T1 sequence (P12821 642-1230): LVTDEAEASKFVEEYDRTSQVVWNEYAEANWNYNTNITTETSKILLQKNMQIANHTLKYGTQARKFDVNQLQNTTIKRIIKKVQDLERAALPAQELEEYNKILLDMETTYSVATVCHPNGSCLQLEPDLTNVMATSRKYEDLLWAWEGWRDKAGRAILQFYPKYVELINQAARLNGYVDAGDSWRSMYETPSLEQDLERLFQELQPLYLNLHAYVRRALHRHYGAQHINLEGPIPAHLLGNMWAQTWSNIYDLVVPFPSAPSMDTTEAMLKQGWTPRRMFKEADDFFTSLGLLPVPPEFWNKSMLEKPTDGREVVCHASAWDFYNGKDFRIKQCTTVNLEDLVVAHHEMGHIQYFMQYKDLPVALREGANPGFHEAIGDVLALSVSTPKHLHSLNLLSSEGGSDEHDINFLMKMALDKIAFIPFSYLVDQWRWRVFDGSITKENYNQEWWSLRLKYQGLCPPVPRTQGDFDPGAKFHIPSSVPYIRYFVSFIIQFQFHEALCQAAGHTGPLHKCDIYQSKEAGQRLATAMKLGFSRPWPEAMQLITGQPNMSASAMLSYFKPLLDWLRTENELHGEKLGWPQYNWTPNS

| IC50 (AnCE [1]) | Ki (AnCE [2]) | Compound | X-ray crystal structure, 1.85 Å (C-ACE) |
| --- | --- | --- | --- |
| 44 nM | 24 nM | O=C(N[C@@H](Cc1ccccc1)P(=O)(O)C[C@@H](Cc1cc(-c2ccccc2)no1)C(=O)N[C@@H](Cc1ccc(O)cc1)C(=O)O)OCc1ccccc1 [FI, (2S)‐2‐({3‐[hydroxyl (2‐phenyl‐(1R)‐1‐{[(benzyloxy)carbonyl]‐amino}ethyl)phosphinyl]‐2‐[(3‐phenylisoxazol‐5‐yl)methyl]‐1‐oxo‐propyl}amino)‐3‐(4‐hydroxy‐phenyl) propanoic acid] | One bound inhibitor molecule was modelled in the catalytic site of C‐ACE |
| 210 nM | 120 nM | O=C(N[C@@H](Cc1ccccc1)P(=O)(O)C[C@H](Cc1cc(-c2ccccc2)no1)C(=O)N[C@@H](Cc1ccc(O)cc1)C(=O)O)OCc1ccccc1 [FII, (2S)‐2‐({3‐[hydroxyl (2‐phenyl‐(1R)‐1‐{[(benzyloxy)carbonyl]‐amino}ethyl)phosphinyl]‐2‐[(3‐phenylisoxazol‐5‐yl)methyl]‐1‐oxo‐propyl}amino)‐3‐(4‐hydroxy‐phenyl) propanoic acid] |  |

Reference: paper PMC4154125, “Crystal structures of highly specific phosphinic tripeptide enantiomers in complex with the angiotensin‐I converting enzyme” (The Febs Journal, 2013)
